Data reported in publication PMC11642016 (International Journal of Molecular Sciences, 2024).
Several values for one entry are separate records, joined by “and”; a condition that tells them apart may be missing. Equal entries are not always repeated. Where two headings read alike, the source gives them in different places.

Key:
PANC-1 and Fadu cells = test: CellTiter-Glo viability, statements covering both cancer cell lines; assay type: cell-based, human; conditions: 72 h dose–response
PANC-1 cells [1] = test: Colony formation (clonogenic) assay; assay type: cell-based, human; conditions: 4 µM
HEK293T WT cells = test: CellTiter-Glo cell viability assay, HEK293T WT; conditions: for HEK293T WT Cell viability (% of controll): 72 h, dose–response, individual replicates
Protocol: (§1) Primary fibroblast cultures were prepared from human skin biopsies and maintained in DMEM supplemented with 10% FBS, 1% penicillin-streptomycin, and 1% MEM Non-Essential Amino Acids Solution (Thermo Fisher Scientific). […] All cell lines were cultured in a humidified atmosphere at 37 °C and 5% CO2, passaged twice a week, and the experiments were performed on cells between passage 5 and 15. The cell lines were routinely screened for the absence of mycoplasma infection (DAPI staining).
(§2) The effects of the synthesized compounds on cell viability were measured using the CellTiter-Glo® luminescent cell viability assay (Promega, Madison, WI, USA), according to the manufacturer’s instructions. Briefly, cells were seeded onto a flat-bottomed, white 96-well plate (BRANDplates, cat. no.: 781965)), with the following densities: PANC-1: 750 cells/well, Fadu: 2000 cells/well, primary fibroblasts: 2000 cells/well, HEK293T WT: 1000 cells/well, HEK293T CLPP^−/−: 2500 cells/well. After seeding, cells were incubated for a further 48 h before treatment. Cells were treated with the compounds for 72 h. Three concentrations (25.0 µM; 8.3 µM; 2.8 µM) were applied during the initial cell viability screening, while for the determination of dose–response curves, 1.5-fold serially diluted compound concentrations were applied (range: 26 µM–0.7 µM). After treatment, the luminescence signal was recorded using a microplate reader (BioTek Synergy 2 Multi-Mode Reader, BioTek, Winooski, VT, USA).
(§3) Data analysis was performed using GraphPad Prism 9.5.0 software (GraphPad Software, San Diego, CA, USA). […] The dose–response curves were generated by four-parameter nonlinear regression, and the IC50 values were determined as the means ± SEM of the best-fit values of 3 independent measurements. The R^2 values were consistently above 0.93, indicating a strong fit of the model to the experimental data (Supplementary S.89). […] Dunnett’s post hoc test was applied to adjust for multiple comparisons, minimizing the likelihood of false positive results. Assumptions for ANOVA, including normality (assessed via QQ plots) and homogeneity of variance (tested using the Brown–Forsythe test), were verified. The following significance levels were applied: * p < 0.05, ** p < 0.01, *** p < 0.001, **** p < 0.0001. […] The tumor selectivity of the compounds was quantitatively characterized by the selectivity index (SI). This parameter was calculated as the ratio of the average best-fit IC50 value for primary fibroblasts and the best-fit IC50 value for the corresponding tumor cells (PANC-1 or Fadu).

Fadu cells = test: CellTiter-Glo luminescent cell viability assay, Fadu; conditions: for Fadu Cell viability (% of controll): dose–response, individual replicates
HEK293T CLPP^−/− cells = test: CellTiter-Glo cell viability assay, HEK293T CLPP−/− (ClpP dependence); conditions: for HEK293T CLPP-/- Cell viability (% of controll): individual replicates;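 as to all read-outs here: CellTiter-Glo luminescent signal read on a microplate reader once HEK293T CLPP−/− cells had been exposed to compounds for 72 h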
Protocol: as §1, §2, §3

[2] = system: non-tumorous primary fibroblast cells; test: CellTiter-Glo luminescent cell viability assay, primary fibroblasts; conditions: for Primer fibroblast Cell viability (% of controll): 72 h, dose–response, individual replicates
Protocol: as §1, §2, §3

PANC-1 cells [3] = test: CellTiter-Glo luminescent cell viability assay, PANC-1; conditions: for PANC-1 Cell viability (% of controll): dose–response, individual replicates

`CNCC#Cc1cccc(CN2C(=O)C3=C(CCN(Cc4ccc(-n5cc(-[c-]6cccc6)nn5)cc4)C3)N3CCN=C23)c1.[Fe+2].c1cc[cH-]c1` [38a] was tested, and the “concentration range of almost complete eradication of PANC-1 and Fadu cells with little to no cytotoxic effect toward fibroblasts” value (PANC-1 and Fadu cells) was 3000 to 4000 nM, the “viable cells / colonies after shorter exposure” value (PANC-1 cells [1]; 24 h treatment followed by 5 days post-incubation) was “left only traces of viable cells” and the “viable cells / colonies after longer exposure” value (PANC-1 cells [1]; 72 h treatment followed by 3 days post-incubation) was “no viable cells were discernible”. The “HEK293T WT Cell viability (% of controll)” value (HEK293T WT cells; 0.4 μM) was 106 % of controll and 101 % of controll and 99 % of controll and 100 % of controll, the “HEK293T WT Cell viability (% of controll)” value (HEK293T WT cells; 0.6 μM) was 106 % of controll (2×) and 109 % of controll and 81 % of controll and the “HEK293T WT Cell viability (% of controll)” value (HEK293T WT cells; 1.0 μM) was 82 % of controll and 90 % of controll and 94 % of controll and 81 % of controll. The “HEK293T WT Cell viability (% of controll)” value (HEK293T WT cells; 1.6 μM) was 65 % of controll and 60 % of controll and 52 % of controll (2×), the “HEK293T WT Cell viability (% of controll)” value (HEK293T WT cells; 2.5 μM) was 11 % of controll and 6 % of controll and 5 % of controll (2×) and the “HEK293T WT Cell viability (% of controll)” value (HEK293T WT cells; 4.0 μM) was 0 % of controll. The “HEK293T WT Cell viability (% of controll)” value (HEK293T WT cells; 6.4 μM) was 0 % of controll, the “HEK293T WT Cell viability (% of controll)” value (HEK293T WT cells; 16.25 μM) was 0 % of controll and the “HEK293T WT Cell viability (% of controll)” value (HEK293T WT cells; 26 μM) was 0 % of controll. For the same compound, the IC50 (HEK293T WT cells; read-out: HEK293T WT IC50 values, individual replicates n1-n4, IC50 independently determined for each replicate measurement (Supplement S.6)) was 1.6 µM and 1.5 µM and 1.65 µM and 1.62 µM, the IC50 (HEK293T WT cells; read-out: IC50 (µM) HEK293T WT, 72 h treatment, ± SEM, best-fit values, n = 4) was 1.6 ± 0.04 µM and the “Fadu Cell viability (% of controll)” value (Fadu cells; 0.7 μM, 72 h) was 109 % of controll and 115 % of controll and 106 % of controll. For the same compound, the “Fadu Cell viability (% of controll)” value (Fadu cells; 1 μM, 72 h) was 110 % of controll and 106 % of controll and 105 % of controll, the “Fadu Cell viability (% of controll)” value (Fadu cells; 1.5 μM, 72 h) was 102 % of controll and 103 % of controll and 100 % of controll and the “Fadu Cell viability (% of controll)” value (Fadu cells; 2.3 μM, 72 h) was 96 % of controll and 91 % of controll and 87 % of controll. For the same compound, the “Fadu Cell viability (% of controll)” value (Fadu cells; 3.4 μM, 72 h) was 43 % of controll and 13 % of controll (2×), the “Fadu Cell viability (% of controll)” value (Fadu cells; 5.1 μM, 72 h) was 0 % of controll and the “Fadu Cell viability (% of controll)” value (Fadu cells; 7.7 μM, 72 h) was 0 % of controll. The “Fadu Cell viability (% of controll)” value (Fadu cells; 17.3 μM, 72 h) was 0 % of controll, the “Fadu Cell viability (% of controll)” value (Fadu cells; 26 μM, 72 h) was 0 % of controll and the “Cell Viability (% of Control) 2.8 µM” value (Fadu cells; Fadu, 2.8 µM, 72 h, second-set screening, mean ± SD, n = 2) was 85 ± 16 % of Control. For the same compound, the “Cell Viability (% of Control) 8.3 µM” value (Fadu cells; Fadu, 8.3 µM, 72 h, second-set screening, mean ± SD, n = 2) was 0 ± 1 % of Control, the “Cell Viability (% of Control) 25 µM” value (Fadu cells; Fadu, 25 µM, 72 h, second-set screening, mean ± SD, n = 2) was 0 ± 0 % of Control and the “Selectivity Index (SI) Fibroblast/Fadu” value (Fadu cells; ratio of mean best-fit IC50 for primary fibroblasts and best-fit IC50 for Fadu) was 1.6. The IC50 (Fadu cells; read-out: Fadu IC50 values, individual replicates n1-n3, IC50 independently determined for each replicate measurement (Supplement S.6)) was 3.2 µM and 2.75 µM (2×), the IC50 (Fadu cells; read-out: IC50 Value ± SEM Fadu, 72 h treatment, best-fit values, n = 3) was 2.9 ± 0.06 µM and the “HEK293T CLPP-/- Cell viability (% of controll)” value (HEK293T CLPP^−/− cells; 0.4 μM, 72 h, dose–response, listed as CZT456, 0.4 µM) was 109 % of controll and 108 % of controll and 110 % of controll and 114 % of controll. The “HEK293T CLPP-/- Cell viability (% of controll)” value (HEK293T CLPP^−/− cells; 0.6 μM, 72 h, dose–response, listed as CZT456, 0.6 µM) was 111 % of controll and 109 % of controll and 110 % of controll, the “HEK293T CLPP-/- Cell viability (% of controll)” value (HEK293T CLPP^−/− cells; 1.0 μM, 72 h, dose–response, listed as CZT456, 1 µM) was 105 % of controll and 107 % of controll and 106 % of controll and the “HEK293T CLPP-/- Cell viability (% of controll)” value (HEK293T CLPP^−/− cells; 1.6 μM, 72 h, dose–response, listed as CZT456, 1.6 µM) was 92 % of controll and 96 % of controll and 103 % of controll and 93 % of controll. The “HEK293T CLPP-/- Cell viability (% of controll)” value (HEK293T CLPP^−/− cells; 2.5 μM, 72 h, dose–response, listed as CZT456, 2.5 µM) was 41 % of controll and 59 % of controll and 55 % of controll and 48 % of controll, the “HEK293T CLPP-/- Cell viability (% of controll)” value (HEK293T CLPP^−/− cells; 4.0 μM, 72 h, dose–response, listed as CZT456, 4 µM) was 1 % of controll and 8 % of controll and 9 % of controll and the “HEK293T CLPP-/- Cell viability (% of controll)” value (HEK293T CLPP^−/− cells; 6.4 μM, 72 h, dose–response) was 0 % of controll. For the same compound, the “HEK293T CLPP-/- Cell viability (% of controll)” value (HEK293T CLPP^−/− cells; 16.25 μM, 72 h, dose–response) was 0 % of controll, the “HEK293T CLPP-/- Cell viability (% of controll)” value (HEK293T CLPP^−/− cells; 26 μM, 72 h, dose–response) was 0 % of controll and the “effect on the viability of HEK293T CLPP^−/− cells” value (HEK293T CLPP^−/− cells; dose–response, 72 h, compared with HEK293T WT) was “maintained”. For the same compound, the IC50 (HEK293T CLPP^−/− cells; read-out: IC50 (µM) HEK293T CLPP^−/−, 72 h treatment, ± SEM, best-fit values, n = 4) was 2.4 ± 0.03 µM, the “Primer fibroblast Cell viability (% of controll)” value ([2]; 0.7 μM) was 97 % of controll and 105 % of controll and 109 % of controll and the “Primer fibroblast Cell viability (% of controll)” value ([2]; 1 μM) was 111 % of controll and 113 % of controll and 100 % of controll. For the same compound, the “Primer fibroblast Cell viability (% of controll)” value ([2]; 1.5 μM) was 105 % of controll and 113 % of controll and 100 % of controll, the “Primer fibroblast Cell viability (% of controll)” value ([2]; 2.3 μM) was 105 % of controll and 107 % of controll and 101 % of controll and the “Primer fibroblast Cell viability (% of controll)” value ([2]; 3.4 μM) was 108 % of controll (2×) and 100 % of controll. For the same compound, the “Primer fibroblast Cell viability (% of controll)” value ([2]; 5.1 μM) was 9 % of controll (2×) and 6 % of controll, the “Primer fibroblast Cell viability (% of controll)” value ([2]; 7.7 μM) was 0 % of controll and the “Primer fibroblast Cell viability (% of controll)” value ([2]; 17.3 μM) was 0 % of controll. The “Primer fibroblast Cell viability (% of controll)” value ([2]; 26 μM) was 0 % of controll, the IC50 ([2]; read-out: IC50 Value ± SEM Primary Fibroblast, 72 h treatment, best-fit values, n = 3) was 4.6 ± 0.83 µM and the IC50 ([2]; read-out: Primary fibroblast IC50 values, Mean, mean of independently fitted replicate IC50 values (Supplement S.6), ONC201 value mathematically estimated from inflection point) was 4.63 µM. The IC50 ([2]; read-out: Primary fibroblast IC50 values, individual replicates n1-n3, IC50 independently determined for each replicate (Supplement S.6), ONC201 value mathematically estimated from inflection point, viability stayed above 50%) was 4.8 µM and 4.28 µM and 4.79 µM, the “PANC-1 Cell viability (% of controll)” value (PANC-1 cells [3]; 0.7 μM, 72 h) was 112 % of controll and 107 % of controll and 109 % of controll and the “PANC-1 Cell viability (% of controll)” value (PANC-1 cells [3]; 1 μM, 72 h) was 107 % of controll and 114 % of controll and 110 % of controll. The “PANC-1 Cell viability (% of controll)” value (PANC-1 cells [3]; 1.5 μM, 72 h) was 116 % of controll and 119 % of controll and 108 % of controll, the “PANC-1 Cell viability (% of controll)” value (PANC-1 cells [3]; 2.3 μM, 72 h) was 97 % of controll and 105 % of controll and 115 % of controll and the “PANC-1 Cell viability (% of controll)” value (PANC-1 cells [3]; 3.4 μM, 72 h) was 2 % of controll (2×) and 4 % of controll. For the same compound, the “PANC-1 Cell viability (% of controll)” value (PANC-1 cells [3]; 5.1 μM, 72 h) was 0 % of controll, the “PANC-1 Cell viability (% of controll)” value (PANC-1 cells [3]; 7.7 μM, 72 h) was 0 % of controll and the “PANC-1 Cell viability (% of controll)” value (PANC-1 cells [3]; 17.3 μM, 72 h) was 0 % of controll. The “PANC-1 Cell viability (% of controll)” value (PANC-1 cells [3]; 26 μM, 72 h) was 0 % of controll, the “Cell Viability (% of Control) 2.8 µM” value (PANC-1 cells [3]; PANC-1, 2.8 µM, 72 h, second-set screening, mean ± SD, n = 2) was 44 ± 41 % of Control and the “Cell Viability (% of Control) 8.3 µM” value (PANC-1 cells [3]; PANC-1, 8.3 µM, 72 h, second-set screening, mean ± SD, n = 2) was 0 ± 0 % of Control. For the same compound, the “Cell Viability (% of Control) 25 µM” value (PANC-1 cells [3]; PANC-1, 25 µM, 72 h, second-set screening, mean ± SD, n = 2) was 0 ± 0 % of Control, the “Selectivity Index (SI) Fibroblast/PANC-1” value (PANC-1 cells [3]; ratio of mean best-fit IC50 for primary fibroblasts and best-fit IC50 for PANC-1) was 1.7 and the IC50 (PANC-1 cells [3]; read-out: IC50 Value ± SEM PANC-1, 72 h treatment, best-fit values, n = 3) was 2.7 ± 0.07 µM. For the same compound, the IC50 (PANC-1 cells [3]; read-out: PANC-1 IC50 values, Mean, mean of independently fitted replicate IC50 values (Supplement S.6)) was 2.71 µM and the IC50 (PANC-1 cells [3]; read-out: PANC-1 IC50 values, individual replicates n1-n3, IC50 independently determined for each replicate measurement (Supplement S.6)) was 2.79 µM and 2.62 µM and 2.72 µM.
